Broadly, the pIC50 is the IC50 on a negative log10 scale, so that one unit is a factor of ten.

Three compounds from patent US9474790B2, “Stable, protracted GLP-1/glucagon receptor co-agonists for medical use” (Novo Nordisk A/S, priority 2013, dated 2016) can be followed below.

One data set has as its target T1, human GLP-1 receptor (Homo sapiens, UniProt P43220).
T1 construct: expressed in transfected cells; host or cells: BHK cells (parent BHKTS13), clone FCW467-12A/KZ10-1, with CRE luciferase
As to the kind of experiment: GLP-1 receptor binding, 125I-GLP-1 displacement SPA on isolated membranes. The note with it: displacement of 125I-GLP-1 from membranes; read-out: IC50 GLP-1R. The procedure:
The purpose of this assay was to test the in vitro receptor binding activity of the glucagon derivatives of the invention. The receptor binding is a measure of affinity of a compound for the human GLP-1 receptor.
The receptor binding of each compound to the human GLP-1 receptor was measured in a displacement binding assay. In this type of assay a labelled ligand (in this case 125I-GLP-1) is bound to the receptor. Each derivative was added in a series of concentrations to isolated membranes containing the human GLP-1 receptor and displacement of the labelled ligand was monitored. The receptor binding was reported as the concentration at which half of the labelled ligand was displaced from the receptor, the IC50 value.
In order to test the binding of the derivatives to albumin, the assay may be performed in a very low concentration of serum albumin (max. 0.001% final assay concentration) as well as in the presence of a higher concentration of serum albumin (2.0% final assay concentration). An increase of the IC50 value, in the presence of serum albumin indicates an affinity to serum albumin and represents a method to predict a protracted pharmacokinetic profile of the test substance in animal models.
The following chemicals were used in the assay: DMEM w/o phenol red (Gibco 11880-028), Pen/strep (Invitrogen 15140-122), G418 (Invitrogen 10131-027), 1 M Hepes (Gibco 15630), EDTA (Invitrogen 15575-038), PBS (Invitrogen 14190-094), fetal calf serum (Invitrogen 16140-071), EGTA, MgCl2 (Merck 1.05832.1000), Tween 20 (Amresco 0850C335), SPA particles (wheat germ agglutinin (WGA) SPA beads, Perkin Elmer RPNQ0001), [125I]-GLP-1]-(7-36)NH2 (produced in-house), OptiPlate™-96 (Perkin Elmer).
Buffer 1 consisted of 20 mM Na-HEPES plus 10 mM EDTA and pH was adjusted to 7.4.
Buffer 2 consisted of 20 mM Na-HEPES plus 0.1 mM EDTA and pH was adjusted to 7.4.
Assay buffer consisted of 50 mM HEPES supplemented with 5 mM EGTA, 5 mM MgCl2, 0.005% Tween 20 and pH was adjusted to 7.4.
The cells used in this assay (clone FCW467-12A) were BHK cells with BHKTS13 as a parent cell line. The cells express the human GLP-1 receptor.
The cells were grown at 5% CO2 in DMEM, 10% fetal calf serum, 1% Pen/Strep (Penicillin/Streptomycin) and 1.0 mg/ml of the selection marker G418. To make a membrane preparation the cells were grown to approximately 80% confluence. The cells were washed twice in phosphate-buffered saline and harvested. The cells were pelleted using a brief centrifugation and the cell pellet was kept on ice. The cell pellet was homogenised with ULTRA-THURRAX dispersing instrument for 20-30 sec in a suitable amount of buffer 1 (e.g. 10 ml). The homogenate was centrifuged for 15 min. The pellet was re-suspended (homogenised) in 10 ml buffer 2 and centrifuged. This step was repeated once more. The resulting pellet was re-suspended in buffer 2 and the protein concentration was determined. The membranes were aliquoted and stored at minus 80° C.
1. For the receptor binding assay, 50 μl of the assay buffer was added to each well of an assay plate.
2. Test compounds were serially diluted to give the following concentrations: 8×10EE-7 M, 8×10EE-8 M, 8×10EE-9 M, 8×10EE-10 M, 8×10EE-11 M, 8×10EE-12 M and 8×10EE-13 M. Twenty-five μl were added to appropriate wells in the assay plate.
3. Cell membrane aliquots were thawed and diluted to their working concentration. Fifty μl were added to each well in the assay plate.
4. WGA SPA beads were suspended in assay buffer at 20 mg/ml. The suspension was diluted to 10 mg/ml in assay buffer just prior to addition to the assay plate. Fifty μl were added to each well in the assay plate.
5. The incubation was started by adding 25 μl of 480 pM solution of [125I]-GLP-1]-(7-36)NH2 to each well of the assay plate. A 25 μl aliquot was reserved for measuring total counts/well.
6. The assay plate was incubated for 2 h at 30° C.
7. The assay plate was centrifuged for 10 min.
8. The assay plate was read in a Perkin Elmer TopCount NXT instrument. […]

The nature of data set [1]: Thioflavin T (ThT) fibrillation assay for physical stability. In kind it is physicochemical. As to conditions: 250 μM in 10 mM HEPES buffer, pH 7.5, 37° C., shaking 960 rpm. An excerpt:
The purpose of this assay was to assess the physical stability of the glucagon derivatives of the invention in aqueous solutions.
Low physical stability of a peptide may lead to amyloid fibril formation, which is observed as well-ordered, thread-like macromolecular structures in the sample, which eventually may lead to gel formation. This has traditionally been measured by visual inspection of the sample. However, that kind of measurement is very subjective and depending on the observer. Therefore, the application of a small molecule indicator probe is much more advantageous. Thioflavin T (ThT) is such a probe and has a distinct fluorescence signature when binding to fibrils [Naiki et al; Anal. Biochem. 1989 177 244-249; LeVine; Methods. Enzymol. 1999 309 274-284].
The time course for fibril formation can be described by a sigmoidal curve with the following expression [Nielsen et al; Biochemistry 2001 40 6036-6046]:
Here, as depicted in FIG. 1, F is the ThT fluorescence at the time t. The constant t0 is the time needed to reach 50% of maximum fluorescence. The two important parameters describing fibril formation are the lag-time calculated by t0−2τ and the apparent rate constant kapp 1/τ.
Samples were prepared freshly before each assay. Each sample composition is described in the legends. The pH of the sample was adjusted to the desired value using appropriate amounts of concentrated NaOH and HCl. Thioflavin T was added to the samples from a stock solution in H2O to a final concentration of 1 μM.
Sample aliquots of 200 μl (250 μM of the glucagon derivative/analogue in 10 mM HEPES buffer, pH 7.5) were placed in a 96 well microtiter plate (Packard OptiPlate™-96, white polystyrene). Usually, four or eight replica of each sample (corresponding to one test condition) were placed in one column of wells. The plate was sealed with Scotch Pad (Qiagen).
Incubation at given temperature, shaking and measurement of the ThT fluorescence emission were done in a Fluoroskan Ascent FL fluorescence plate reader (Thermo Labsystems). The temperature was set to 37° C. and the plate was incubated with orbital shaking adjusted to 960 rpm with an amplitude of 1 mm. Fluorescence measurement was done using excitation through a 444 nm filter and measurement of emission through a 485 nm filter.
Each run was initiated by incubating the plate at the assay temperature for 10 min. The plate was measured every 20 minutes for a desired period of time. Between each measurement, the plate was shaken and heated as described.
After completion of the ThT assay the four or eight replica of each sample was pooled and centrifuged at 20000 rpm for 30 minutes at 18° C. The supernatant was filtered through a 0.22 μm filter and an aliquot was transferred to a HPLC vial.
The concentration of peptide in the initial sample and in the filtered supernatant was determined by reverse phase HPLC using an appropriate standard as reference. The percentage fraction the concentration of the filtered sample constituted of the initial sample concentration was reported as the recovery.
The measurement points were saved in Microsoft Excel format for further processing and curve drawing and fitting was performed using GraphPad Prism. The background emission from ThT in the absence of fibrils was negligible. The data points were typically a mean of four or eight samples.
The data set may be fitted to Eq. (1).

pIC50: −log10 of the molar value. Numbered stars: 1 amine (or outer) side, 2 acyl side, 3 side chain; on linkers, the order of the positions; unused ones are H or OH. Square brackets hold non-standard residues; d marks the D form. Side chains are listed from the residue outwards. Peptide text beside a SMILES is read from it. * marks the point of attachment. C18 diacid = O=C(O)CCCCCCCCCCCCCCCCC(=O)*; γGlu = O=C(O)[C@H](CCC(=O)[*:2])N[*:1]; AEEA = NCCOCCOCC(=O)O; Aib = CC(C)(N)C(=O)O

T1 sequence (P43220 24-463): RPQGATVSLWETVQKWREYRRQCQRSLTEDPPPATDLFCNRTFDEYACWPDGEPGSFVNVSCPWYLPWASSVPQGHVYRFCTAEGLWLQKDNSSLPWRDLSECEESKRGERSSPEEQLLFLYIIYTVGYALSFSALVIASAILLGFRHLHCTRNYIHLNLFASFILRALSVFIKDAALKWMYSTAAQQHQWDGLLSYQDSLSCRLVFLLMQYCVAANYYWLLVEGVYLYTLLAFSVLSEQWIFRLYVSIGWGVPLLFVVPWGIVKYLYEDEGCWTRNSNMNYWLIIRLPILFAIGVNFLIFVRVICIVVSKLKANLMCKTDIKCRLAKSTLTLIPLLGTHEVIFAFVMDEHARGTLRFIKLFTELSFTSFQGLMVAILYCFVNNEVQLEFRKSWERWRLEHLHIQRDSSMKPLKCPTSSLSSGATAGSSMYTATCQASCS

As to `CC(C)C[C@H](NC(=O)[C@H](CC(C)C)NC(=O)[C@H](Cc1c[nH]c2ccccc12)NC(=O)[C@H](CCC(N)=O)NC(=O)[C@@H](NC(=O)[C@H](Cc1ccccc1)NC(=O)[C@H](CCC(=O)O)NC(=O)[C@H](CCCNC(=N)N)NC(=O)[C@H](C)NC(=O)[C@H](C)NC(=O)[C@H](CCCNC(=N)N)NC(=O)[C@H](CO)NC(=O)[C@H](CC(=O)O)NC(=O)[C@H](CC(C)C)NC(=O)[C@H](Cc1ccc(O)cc1)NC(=O)[C@H](CCCCN)NC(=O)[C@H](CO)NC(=O)[C@H](CC(C)C)NC(=O)[C@H](CC(=O)O)NC(=O)[C@H](CO)NC(=O)[C@@H](NC(=O)[C@H](Cc1ccccc1)NC(=O)[C@@H](NC(=O)CNC(=O)[C@H](CCC(N)=O)NC(=O)C(C)(C)NC(=O)[C@@H](N)Cc1c[nH]cn1)[C@@H](C)O)[C@@H](C)O)C(C)C)C(=O)N[C@@H](CC(N)=O)C(=O)N[C@@H](CCCCNC(=O)CC[C@H](NC(=O)CC[C@H](NC(=O)COCCOCCNC(=O)COCCOCCNC(=O)CC[C@H](NC(=O)CCCCCCCCCCCCCCCCC(=O)O)C(=O)O)C(=O)O)C(=O)O)C(N)=O` [Example 9, N^ε29-[(4S)-4-carboxy-4-[[(4S)-4-carboxy-4-[[2-[2-[2-[[2-[2-[2-[[(4S)-4-carboxy-4-(17-carboxyheptadecanoylamino)butanoyl]amino]ethoxy]ethoxy]acetyl]amino]ethoxy]ethoxy]acetyl]amino]butanoyl]amino]butanoyl]-[Aib2,Leu10,Ala18,Arg20,Glu21,Leu27,Lys29]-Glucagon amide] (H-H[Aib]QGTFTSDLSKYLDSRAAREFVQWLLNK([γGlu-γGlu-AEEA-AEEA-γGlu-C18 diacid])-NH2; N-terminus assumed), on human GLP-1 receptor, the negative-log IC50 (pIC50) was 9.70. In data set [1], this compound returned a THT assay Lag time (Ex. 76) of 8 h.
`CC(C)C[C@H](NC(=O)[C@H](Cc1ccc(O)cc1)NC(=O)[C@H](CCCCN)NC(=O)[C@H](CO)NC(=O)[C@H](CC(C)C)NC(=O)[C@H](CC(=O)O)NC(=O)[C@H](CO)NC(=O)[C@@H](NC(=O)[C@H](Cc1ccccc1)NC(=O)[C@@H](NC(=O)CNC(=O)[C@H](CCC(N)=O)NC(=O)C(C)(C)NC(=O)[C@@H](N)Cc1c[nH]cn1)[C@@H](C)O)[C@@H](C)O)C(=O)N[C@@H](CC(=O)O)C(=O)N[C@@H](C)C(=O)N[C@@H](CCCNC(=N)N)C(=O)N[C@@H](CCCNC(=N)N)C(=O)N[C@@H](C)C(=O)N[C@@H](CCCNC(=N)N)C(=O)N[C@@H](CC(=O)O)C(=O)N[C@@H](Cc1ccccc1)C(=O)N[C@H](C(=O)N[C@@H](CCC(N)=O)C(=O)N[C@@H](Cc1c[nH]c2ccccc12)C(=O)N[C@@H](CC(C)C)C(=O)N[C@@H](CC(C)C)C(=O)N[C@@H](CCCCNC(=O)COCCOCCNC(=O)COCCOCCNC(=O)CC[C@H](NC(=O)CC[C@H](NC(=O)CC[C@H](NC(=O)CCCCCCCCCCCCCCCCC(=O)O)C(=O)O)C(=O)O)C(=O)O)C(=O)N[C@H](C(N)=O)[C@@H](C)O)C(C)C` [Example 58, N^ε28-[2-[2-[2-[[2-[2-[2-[[(4S)-4-carboxy-4-[[(4S)-4-carboxy-4-[[(4S)-4-carboxy-4-(17-carboxyheptadecanoylamino)butanoyl]amino]butanoyl]amino]butanoyl]amino]ethoxy]ethoxy]acetyl]amino]ethoxy]ethoxy]acetyl]-[Aib2,Leu10,Ala16,Arg20,Leu27,Lys28]-Glucagon amide] (H-H[Aib]QGTFTSDLSKYLDARRARDFVQWLLK([AEEA-AEEA-γGlu-γGlu-γGlu-C18 diacid])T-NH2; N-terminus assumed): the pIC50 at human GLP-1 receptor was 9.70.
For the compound `CC(C)C[C@H](NC(=O)[C@H](Cc1ccc(O)cc1)NC(=O)[C@H](CCCCN)NC(=O)[C@H](CO)NC(=O)[C@@H](NC(=O)[C@H](CC(=O)O)NC(=O)[C@H](CO)NC(=O)[C@@H](NC(=O)[C@H](Cc1ccccc1)NC(=O)[C@@H](NC(=O)CNC(=O)[C@H](CCC(N)=O)NC(=O)C(C)(C)NC(=O)[C@@H](N)Cc1c[nH]cn1)[C@@H](C)O)[C@@H](C)O)C(C)C)C(=O)N[C@@H](CC(=O)O)C(=O)N[C@@H](C)C(=O)N[C@@H](CCCNC(=N)N)C(=O)N[C@@H](CCCNC(=N)N)C(=O)N[C@@H](C)C(=O)N[C@@H](CCC(N)=O)C(=O)N[C@@H](CC(=O)O)C(=O)N[C@@H](Cc1ccccc1)C(=O)N[C@H](C(=O)N[C@@H](CCC(N)=O)C(=O)N[C@@H](Cc1c[nH]c2ccccc12)C(=O)N[C@@H](CC(C)C)C(=O)N[C@@H](CC(C)C)C(=O)N[C@@H](CCCCNC(=O)COCCOCCNC(=O)COCCOCCNC(=O)CC[C@H](NC(=O)CC[C@H](NC(=O)CC[C@H](NC(=O)CCCCCCCCCCCCCCCCC(=O)O)C(=O)O)C(=O)O)C(=O)O)C(=O)N[C@H](C(N)=O)[C@@H](C)O)C(C)C` [Example 70, N^ε28-[2-[2-[2-[[2-[2-[2-[[(4S)-4-carboxy-4-[[(4S)-4-carboxy-4-[[(4S)-4-carboxy-4-(17-carboxyheptadecanoylamino)butanoyl]amino]butanoyl]amino]butanoyl]amino]ethoxy]ethoxy]acetyl]amino]ethoxy]ethoxy]acetyl]-[Aib2,Val10,Ala16,Leu27,Lys28]-Glucagon amide] (H-H[Aib]QGTFTSDVSKYLDARRAQDFVQWLLK([AEEA-AEEA-γGlu-γGlu-γGlu-C18 diacid])T-NH2), the pIC50 on human GLP-1 receptor is 9.70.
